From patent US8802353B2, “Compound for resist and radiation-sensitive composition specification” (Mitsubishi Gas Chemical Company, Inc., priority 2004, dated 2014)

What was measured:
Type in all cases: physicochemical
[1] = Film-forming property (spin-coated film on silicon wafer); design: key: rated C when the film was clouded or its surface was roughened; rated B when the film was partly clouded or roughened; rated A when the film had a good surface flatness without causing clouding; conditions: 3% by weight solution spin-coated, 110° C. 3 min
Excerpt: A 3% by weight solution of the compound B or a mixture (compound B and polyphenol A) in PGME/PE (1/2 by weight) or acetone when not dissolved in PGME/PE was spin-coated on a silicon wafer which had been surface-treated with a silane coupling agent, to form a resist film with a thickness of about 0.05 μm.

[2] = Adhesion to silicon substrate; design: key: rated A when the film was not peeled from the silicon wafer; rated C when peeled off; conditions: silicon wafer surface-treated with silane coupling agent
Experimental: The resist film formed in (2-2) was tested for its adhesion to the silicon wafer which was surface-treated with a silane coupling agent. The sample was rated A when the film was not peeled from the silicon wafer, and rated C when peeled off.

[3] = Solubility in safety solvent; conditions: 23° C.; PGMEA, PGME, ethyl lactate, butyl acetate, methyl 3-methoxypropionate, ethyl propionate
Experimental: The solubility of the compound B was tested at 23° C. using propylene glycol monomethyl ether acetate, propylene glycol monomethyl ether, ethyl lactate, butyl acetate, methyl 3-methoxypropionate and ethyl propionate. The sample was rated A when dissolved in any one of the above solvents in a concentration of 5 wt % or more, rated B when dissolved in a concentration of 0.1 to 5 wt %, and rated C when dissolved only in a concentration of less than 0.1 wt %.

[4] = Glass transition temperature, crystallization temperature and quantity of crystallization heat (DSC); conditions: for Glass transition temperature Rating / Glass transition temperature / Crystallization temperature: DSC; for Glass transition temperature: 20° C./min, nitrogen gas flow; for Glass transition temperature-Crystallization temperature: rating of the difference; for Crystallization temperature: exothermic peak
Experimental: A sample (about 10 mg) placed in a non-sealed aluminum container was heated to a temperature higher than the melting point at a temperature rising rate of 20° C./min in a nitrogen gas flow (50 ml/min). After being rapidly cooled, the sample was again heated to a temperature higher than the melting point at a temperature rising rate of 20° C./min in a nitrogen gas flow (30 ml/min). After being rapidly cooled, the sample was again heated to 400° C. at a temperature rising rate of 20° C./min in a nitrogen gas flow (30 ml/min), to conduct a differential scanning calorimetric analysis using DSC/TA-50WS manufactured by Shimadzu Corporation. The middle point of the region at which the base line turned discontinuous (the point at which the specific heat reduced to half) was taken as the glass transition temperature (Tg) and the temperature of the exothermic peak after the discontinuous region was taken as the crystallization temperature. The quantity of crystallization heat was determined by the area of the region which was surrounded by the exothermic peak and the base line. The sample was rated A when meeting Tg≧130° C., and rated C when meeting Tg≦130° C. Also, the sample was rated A when meeting (glass transition temperature)−(crystallization temperature)≧70° C., and rated C when meeting (glass transition temperature)-(crystallization temperature)<70° C.

| Compound | film-forming property [1] | Adhesion to silicon substrate [2] | Solubility to safety solvent [3] | Glass transition temperature Rating [4] | Glass transition temperature [4] [°C] | Glass transition temperature-Crystallization temperature [4] | Crystallization temperature [4] [°C] |
| --- | --- | --- | --- | --- | --- | --- | --- |
| Cc1cc(C(c2ccc3cc(C(c4cc(C)c(O)cc4C)c4cc(C)c(OC(C)OC5CCCCC5)cc4C)ccc3c2)c2cc(C)c(O)cc2C)c(C)cc1O (stereo not shown) [Compound 118] | A | A | A (rated A when dissolved in any one of the above solvents in a concentration of 5 wt % or more) |  |  |  |  |
| Cc1cc(C(C)(c2ccc(OC(C)OC3CCCCC3)c(C)c2)c2ccc3ccccc3c2)ccc1O (stereo not shown) [Compound 208, reference compound] | A | A | A (rated A when dissolved in any one of the above solvents in a concentration of 5 wt % or more) |  |  |  |  |
| Cc1cc(C(c2ccc3cc(C(c4cc(C)c(O)c(C)c4C)c4cc(C)c(OC(C)OC5CCCCC5)c(C)c4C)ccc3c2)c2cc(C)c(O)c(C)c2C)c(C)c(C)c1O (stereo not shown) [Compound 112] | A | A | A (rated A when dissolved in any one of the above solvents in a concentration of 5 wt % or more) |  |  |  |  |
| Cc1cc(C(c2cc(C(c3cc(C)c(OC(=O)OC(C)(C)C)c(C)c3C)c3cc(C)c(OC(=O)OC(C)(C)C)c(C)c3C)cc(C(c3cc(C)c(OC(=O)OC(C)(C)C)c(C)c3C)c3cc(C)c(OC(=O)OC(C)(C)C)c(C)c3C)c2)c2cc(C)c(OC(=O)OC(C)(C)C)c(C)c2C)c(C)c(C)c1OC(=O)OC(C)(C)C [Compound 117] | A | A | A (rated A when dissolved in any one of the above solvents in a concentration of 5 wt % or more) |  |  |  |  |
| CC(C)(C)OC(=O)Oc1ccc(C(c2ccc(OC(=O)OC(C)(C)C)cc2)c2ccc(OC(=O)OC(C)(C)C)cc2)cc1 [Compound 203, reference compound] | A | A | C (rated C when dissolved only in a concentration of less than 0.1 wt %) |  |  |  |  |
| CCOC(C)Oc1c(C)cc(C(c2ccc3cc(C(c4cc(C)c(O)c(C)c4C)c4cc(C)c(O)c(C)c4C)ccc3c2)c2cc(C)c(O)c(C)c2C)c(C)c1C (stereo not shown) [Compound 111] | A | A | A (rated A when dissolved in any one of the above solvents in a concentration of 5 wt % or more) |  |  |  |  |
| Cc1cc(C(c2ccc(-c3ccc(-c4ccc(C(c5cc(C)c(O)cc5C)c5cc(C)c(OC(C)OC6CCCCC6)cc5C)cc4)cc3)cc2)c2cc(C)c(O)cc2C)c(C)cc1O (stereo not shown) [Compound 116] | A | A | A (rated A when dissolved in any one of the above solvents in a concentration of 5 wt % or more) |  |  |  |  |
| Cc1cc(C(c2ccc3cc(C(c4cc(C)c(O)cc4C)c4cc(C)c(O)cc4C)ccc3c2)c2cc(C)c(O)cc2C)c(C)cc1O [Compound 101, tetrakis(2,5-xylenol)-2,6-naphthalenedialdehyde] |  |  |  | A (rated A when meeting Tg≧130° C.) | 144 | A (rated A when meeting (glass transition temperature)−(crystallization temperature)≧70° C.) |  |
| Cc1cc(C(c2ccc3ccc(C(c4cc(C)c(O)c(C)c4C)c4cc(C)c(OC(C)OC5CCCCC5)c(C)c4C)cc3c2)c2cc(C)c(O)c(C)c2C)c(C)c(C)c1O (stereo not shown) [Compound 114] | A | A | A (rated A when dissolved in any one of the above solvents in a concentration of 5 wt % or more) |  |  |  |  |
| CC(C)(C)OC(=O)Oc1ccc(-c2cc(-c3ccc(OC(=O)OC(C)(C)C)cc3)cc(-c3ccc(OC(=O)OC(C)(C)C)cc3)c2)cc1 [Compound 204, reference compound] | B | A | A (rated A when dissolved in any one of the above solvents in a concentration of 5 wt % or more) |  |  |  |  |
| Cc1cc(C(c2ccc(-c3ccc(-c4ccc(C(c5cc(C)c(O)cc5C)c5cc(C)c(O)cc5C)cc4)cc3)cc2)c2cc(C)c(O)cc2C)c(C)cc1O [Compound 107] |  |  |  | A (rated A when meeting Tg≧130° C.) | 147 | A (rated A when meeting (glass transition temperature)−(crystallization temperature)≧70° C.) |  |
| Cc1cc(C(C)(c2ccc(O)c(C)c2)c2ccc3ccccc3c2)ccc1O [Compound 206, 1-(2-naphthyl)-1,1-bis(3-methyl-4-hydroxyphenyl)ethane, reference compound] |  |  |  | C (rated C when meeting Tg≦130° C.) | 72 | A (rated A when meeting (glass transition temperature)−(crystallization temperature)≧70° C.) |  |
| Cc1cc(C(c2ccc3cc(C(c4cc(C)c(O)c(C)c4C)c4cc(C)c(O)c(C)c4C)ccc3c2)c2cc(C)c(O)c(C)c2C)c(C)c(C)c1O [Compound 102] |  |  |  | A (rated A when meeting Tg≧130° C.) | 136 | A (rated A when meeting (glass transition temperature)−(crystallization temperature)≧70° C.) |  |
| CC(C)(C)OC(=O)Oc1ccc(C(C)(C)c2ccc(OC(=O)OC(C)(C)C)cc2)cc1 [Compound 201, reference compound] |  |  | C (rated C when dissolved only in a concentration of less than 0.1 wt %) |  |  |  |  |
| Cc1cc(O)c(C(C)C)cc1C(c1ccc2cc(C(c3cc(C(C)C)c(O)cc3C)c3cc(C(C)C)c(OC(C)OC4CCCCC4)cc3C)ccc2c1)c1cc(C(C)C)c(O)cc1C (stereo not shown) [Compound 113] | A | A | A (rated A when dissolved in any one of the above solvents in a concentration of 5 wt % or more) |  |  |  |  |
| Cc1cc(C(c2ccc(-c3cccc(-c4ccc(C(c5cc(C)c(O)cc5C)c5cc(C)c(O)cc5C)cc4)c3)cc2)c2cc(C)c(O)cc2C)c(C)cc1O [Compound 106] |  |  |  | A (rated A when meeting Tg≧130° C.) | 137 | A (rated A when meeting (glass transition temperature)−(crystallization temperature)≧70° C.) |  |
| CC(C)(C)OC(=O)Oc1ccc(C2(c3ccc(OC(=O)OC(C)(C)C)cc3)CCCCC2)cc1 [Compound 202, reference compound] |  |  | C (rated C when dissolved only in a concentration of less than 0.1 wt %) |  |  |  |  |
| CCOC(C)Oc1ccc(C(C)(c2ccc(O)c(C)c2)c2ccc3ccccc3c2)cc1C (stereo not shown) [Compound 207, reference compound] | A | A | A (rated A when dissolved in any one of the above solvents in a concentration of 5 wt % or more) |  |  |  |  |
| Cc1cc(C(c2ccc3ccc(C(c4cc(C)c(O)cc4C)c4cc(C)c(O)cc4C)cc3c2)c2cc(C)c(O)cc2C)c(C)cc1O [Compound 104] |  |  |  | A (rated A when meeting Tg≧130° C.) | 145 | A (rated A when meeting (glass transition temperature)−(crystallization temperature)≧70° C.) | 287 |
| Oc1ccc(C2(c3ccc(O)cc3)c3ccccc3-c3ccccc32)cc1 [Compound 209, bisphenol fluorene, reference compound] |  |  |  | C (rated C when meeting Tg≦130° C.) | 101 | C (rated C when meeting (glass transition temperature)-(crystallization temperature)<70° C.) | 157.7 |
